Measured values: publication PMC9194863, “A novel small-molecule selective activator of homomeric GIRK4 channels” (The Journal of Biological Chemistry, 2022)
Where a chain is given by its changes, count along the chain named.

Columns and labels:
Test in all cases: two-electrode voltage clamp, Xenopus oocytes
Format in all cases: cell-based
[1] = molecular target: T1, GIRK4 homomeric channel (GIRK4, G4) (Homo sapiens, UniProt P48544, I177V); settings: activator, high potassium ND96K
T1 construct: gene KCNJ5; full-length GIRK4 in pGEMSH vector, homotetramer, expressed in Xenopus laevis oocytes
T1 sequence (P48544 1-419 I177V): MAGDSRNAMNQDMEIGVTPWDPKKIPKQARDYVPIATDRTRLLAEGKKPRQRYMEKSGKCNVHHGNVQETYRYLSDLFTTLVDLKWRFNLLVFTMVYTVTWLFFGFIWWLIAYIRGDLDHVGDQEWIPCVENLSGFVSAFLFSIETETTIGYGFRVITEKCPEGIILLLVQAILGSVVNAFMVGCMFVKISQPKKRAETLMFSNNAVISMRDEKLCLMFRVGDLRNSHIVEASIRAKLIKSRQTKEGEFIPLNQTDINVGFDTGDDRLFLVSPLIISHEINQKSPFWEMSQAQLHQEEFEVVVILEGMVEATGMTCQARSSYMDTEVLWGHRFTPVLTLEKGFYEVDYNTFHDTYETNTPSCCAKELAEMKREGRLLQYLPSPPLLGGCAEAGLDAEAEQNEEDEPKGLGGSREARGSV

[2] = molecular target: T2, GIRK4 homomeric channel (GIRK4, G4) (Homo sapiens, UniProt P48544)
T2 construct: gene KCNJ5; full-length GIRK4 in pGEMSH vector, homotetramer, expressed in Xenopus laevis oocytes
T2 sequence (P48544 1-419): T1 sequence (P48544 1-419 I177V) with V177I

[3] = molecular target: T3, GIRK4 homomeric channel (GIRK4, G4) (Homo sapiens, UniProt P48544, S75T); settings: activator, high potassium ND96K
T3 construct: gene KCNJ5; full-length GIRK4 in pGEMSH vector, homotetramer, expressed in Xenopus laevis oocytes
T3 sequence (P48544 1-419 S75T): T1 sequence (P48544 1-419 I177V) with S75T, V177I

[4] = molecular target: T4, GIRK4 homomeric channel (GIRK4, G4) (Homo sapiens, UniProt P48544, L77I); settings: activator, high potassium ND96K
T4 construct: gene KCNJ5; full-length GIRK4 in pGEMSH vector, homotetramer, expressed in Xenopus laevis oocytes
T4 sequence (P48544 1-419 L77I): T1 sequence (P48544 1-419 I177V) with L77I, V177I

[5] = molecular target: T5, GIRK4 homomeric channel (GIRK4, G4) (Homo sapiens, UniProt P48544, G247R); settings: activator, high potassium ND96K
T5 construct: gene KCNJ5; full-length GIRK4 in pGEMSH vector, homotetramer, expressed in Xenopus laevis oocytes
T5 sequence (P48544 1-419 G247R): T1 sequence (P48544 1-419 I177V) with V177I, G247R

[6] = molecular target: T6, GIRK4 homomeric channel (GIRK4, G4) (Homo sapiens, UniProt P48544, S75A); settings: activator, high potassium ND96K
T6 construct: gene KCNJ5; full-length GIRK4 in pGEMSH vector, homotetramer, expressed in Xenopus laevis oocytes
T6 sequence (P48544 1-419 S75A): T1 sequence (P48544 1-419 I177V) with S75A, V177I

[7] = molecular target: T7, GIRK2∗ (GIRK2:E152D) (Mus musculus, UniProt P48542, I82L/E152D); settings: activator, high potassium ND96K
T7 construct: gene Kcnj6; GIRK2 E152D in pXOOM vector, homotetramer, expressed in Xenopus laevis oocytes
T7 sequence (P48542 1-425 I82L/E152D): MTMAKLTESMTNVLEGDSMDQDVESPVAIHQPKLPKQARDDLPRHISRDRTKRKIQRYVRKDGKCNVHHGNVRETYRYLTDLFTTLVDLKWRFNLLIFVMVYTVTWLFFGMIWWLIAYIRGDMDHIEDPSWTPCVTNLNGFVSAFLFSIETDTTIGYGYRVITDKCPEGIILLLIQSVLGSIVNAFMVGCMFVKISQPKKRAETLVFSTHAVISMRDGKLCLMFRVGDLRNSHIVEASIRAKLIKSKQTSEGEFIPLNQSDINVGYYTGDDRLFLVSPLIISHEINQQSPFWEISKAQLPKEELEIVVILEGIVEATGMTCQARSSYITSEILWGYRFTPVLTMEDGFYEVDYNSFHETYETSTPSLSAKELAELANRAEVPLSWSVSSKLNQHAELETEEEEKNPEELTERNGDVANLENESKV

[8] = molecular target: T8, GIRK2∗ (GIRK2:E152D) (Mus musculus, UniProt P48542, T80S/I82L/E152D); settings: activator, high potassium ND96K
T8 construct: gene Kcnj6; GIRK2 E152D in pXOOM vector, homotetramer, expressed in Xenopus laevis oocytes
T8 sequence (P48542 1-425 T80S/I82L/E152D): T7 sequence (P48542 1-425 I82L/E152D) with T80S

[9] = molecular target: T9, GIRK4 homomeric channel (GIRK4, G4) (Homo sapiens, UniProt P48544, L90A); settings: activator, high potassium ND96K
T9 construct: gene KCNJ5; full-length GIRK4 in pGEMSH vector, homotetramer, expressed in Xenopus laevis oocytes
T9 sequence (P48544 1-419 L90A): T1 sequence (P48544 1-419 I177V) with L90A, V177I

[10] = molecular target: T10, GIRK4 homomeric channel (GIRK4, G4) (Homo sapiens, UniProt P48544, F181A); settings: activator, high potassium ND96K
T10 construct: gene KCNJ5; full-length GIRK4 in pGEMSH vector, homotetramer, expressed in Xenopus laevis oocytes
T10 sequence (P48544 1-419 F181A): T1 sequence (P48544 1-419 I177V) with V177I, F181A

EC50 [2]: 12.7 µM
Structure (SMILES): COc1ccc(C(=O)CC2(O)C(=O)N(Cc3cccc4ccccc34)c3ccccc32)cc1OC (stereo not shown) [3hi2one-G4, 3-[2-(3,4-dimethoxyphenyl)-2-oxoethyl]-3-hydroxy-1-(1-naphthylmethyl)-1,3-dihydro-2H-indol-2-one]
I/Ibasal at 30 μM [1]: GIRK4:I177V, GIRK4:F181A, and GIRK4:I190A showed reduced 3hi2one-G4–induced currents
I/Ibasal at 30 μM [3]: whereas a Thr mutation significantly but partially affected the compound’s effectiveness
I/Ibasal at 30 μM [4]: GIRK4:I177V, GIRK4:F181A, and GIRK4:I190A showed reduced 3hi2one-G4–induced currents
current at 30 μM [5]: GIRK4:G247R, which is functional, was robustly activated by 3hi2one-G4
I/Ibasal at 30 μM [6]: Mutation of residue S75 to Ala did not yield a significant change in the ability
current at 30 μM [7]: GIRK2∗:I82L and GIRK2∗:T80S/I82L but not GIRK2:T80S could be activated by 3hi2one-G4
current at 30 μM [8]: GIRK2∗:I82L and GIRK2∗:T80S/I82L but not GIRK2:T80S could be activated by 3hi2one-G4
I/Ibasal at 30 μM [9]: GIRK4:I177V, GIRK4:F181A, and GIRK4:I190A showed reduced 3hi2one-G4–induced currents
I/Ibasal at 30 μM [10]: GIRK4:I177V, GIRK4:F181A, and GIRK4:I190A showed reduced 3hi2one-G4–induced currents
